We go through 21 molecules from patent US11945816B2, “Inhibitors of EGFR and/or HER2 and methods of use” (Dana-Farber Cancer Institute, Inc., priority 2017, dated 2024).

As a reminder, the EC50 is the midpoint of the concentration-response curve.

What all share (format): cell-based
Details in all cases: MTS assay, 72 hours
For orientation: Formazan colour is commonly taken as a measure of viable cells.

Assay [1] has as its target T1, wild-type EGFR transformed Ba/F3 cells (Homo sapiens, UniProt P00533).
T1 construct: expressed in transfected cells; host or cells: Ba/F3
The assay can be described thus: Proliferation inhibition assay, wild-type EGFR transformed Ba/F3 cells. The protocol:
(§1) Cell growth inhibition can be assessed by MTS assay or by Cell Titer Glo Luminescent Cell viability assay (Promega®). Cells are seeded and grow in culture plates before they are exposed to representative compounds of the application for various duration. The viability of the cells are then assessed. […] The growth curves can be fitted using a nonlinear regression model with sigmoidal dose response.
(§2) Cell growth inhibition was assessed by MTS assay for Ba/F3, DFCI58-229, and DFCI127c cells, or by Cell Titer Glo Luminescent Cell viability assay (Promega®) for DFC1362JC cells, 3000 Ba/F3 cells were seeded for per well in 96-well plates, and were exposed to representative compounds of the application (3.3 nM to 10 μM) for 72 hours. For DFCI58-229, DFCI127c, and DFC1362JC cells, 5000 cells were seeded per well. All experimental points included 6 to 12 wells. […] The growth curves were fitted using a nonlinear regression model with sigmoidal dose response.
(§3) Activities of representative compounds of the present application in inhibiting EGFR and HER2 were tested by MTS assay (for Ba/F3 cell, DFCI58-229 cell, and DFCI127c cells) or by CellTiter-Glot luminescent cell viability assay (for DFCI362JC cells). For assays with Ba/F3 cells, 3000 cells were seeded for per well in 96-well plates and were exposed to indicated compounds with a concentration of 3.3 to 10 μM for 72 hours. For assays with DFCI58-229 cell, DFCI127c cell, or DFCI362JC cell, 5000 cells were seeded per well in 96-well plates and were exposed to indicated compounds with a concentration of 3.3 to 10 μM for 72 hours.

For assay [2], the target named is T2, EGFR InsGY (D770delinsGY) transformed Ba/F3 cells (Homo sapiens, UniProt P00533, D770Y/INS769G).
T2 construct: expressed in transfected cells; host or cells: Ba/F3
Put plainly: Proliferation inhibition assay, EGFR InsGY transformed Ba/F3 cells. The protocol: as §1, §2, §3

Assay [3] has as its target T3, EGFR InsSVD (D770_N771insSVD) transformed Ba/F3 cells (Homo sapiens, UniProt P00533, INS770SVD).
T3 construct: expressed in transfected cells; host or cells: Ba/F3
Put plainly: Proliferation inhibition assay, EGFR InsSVD transformed Ba/F3 cells. The protocol: as §1, §2, §3

In assay [4] the target is T4, EGFR InsH transformed Ba/F3 cells (Homo sapiens, UniProt P00533, DUP773-773).
T4 construct: expressed in transfected cells; host or cells: Ba/F3
Put plainly: Proliferation inhibition assay, EGFR InsH transformed Ba/F3 cells. On the procedure: as §1, §2, §3

Assay [5] addresses T5, wild-type HER2 transformed Ba/F3 cells (Homo sapiens, UniProt P04626).
T5 construct: expressed in transfected cells; host or cells: Ba/F3
Put plainly: Proliferation inhibition assay, wild-type HER2 transformed Ba/F3 cells. On the procedure:
as §1, §2, §3

Assay [6] addresses T6, HER2 InsYVMA (A775_G776insYVMA) transformed Ba/F3 cells (Homo sapiens, UniProt P04626, INS775YVMA).
T6 construct: expressed in transfected cells; host or cells: Ba/F3
The assay can be described thus: Proliferation inhibition assay, HER2 InsYVMA transformed Ba/F3 cells. The protocol: as §1, §2, §3

The target in assay [7] is T7, HER2 InsWLV transformed Ba/F3 cells (Homo sapiens, UniProt P04626, INS773WL/M774V).
T7 construct: expressed in transfected cells; host or cells: Ba/F3
Put plainly: Proliferation inhibition assay, HER2 InsWLV transformed Ba/F3 cells. On the procedure:
as §1, §2, §3

T6 sequence (P04626 with tags, fused parts or gaps INS775YVMA): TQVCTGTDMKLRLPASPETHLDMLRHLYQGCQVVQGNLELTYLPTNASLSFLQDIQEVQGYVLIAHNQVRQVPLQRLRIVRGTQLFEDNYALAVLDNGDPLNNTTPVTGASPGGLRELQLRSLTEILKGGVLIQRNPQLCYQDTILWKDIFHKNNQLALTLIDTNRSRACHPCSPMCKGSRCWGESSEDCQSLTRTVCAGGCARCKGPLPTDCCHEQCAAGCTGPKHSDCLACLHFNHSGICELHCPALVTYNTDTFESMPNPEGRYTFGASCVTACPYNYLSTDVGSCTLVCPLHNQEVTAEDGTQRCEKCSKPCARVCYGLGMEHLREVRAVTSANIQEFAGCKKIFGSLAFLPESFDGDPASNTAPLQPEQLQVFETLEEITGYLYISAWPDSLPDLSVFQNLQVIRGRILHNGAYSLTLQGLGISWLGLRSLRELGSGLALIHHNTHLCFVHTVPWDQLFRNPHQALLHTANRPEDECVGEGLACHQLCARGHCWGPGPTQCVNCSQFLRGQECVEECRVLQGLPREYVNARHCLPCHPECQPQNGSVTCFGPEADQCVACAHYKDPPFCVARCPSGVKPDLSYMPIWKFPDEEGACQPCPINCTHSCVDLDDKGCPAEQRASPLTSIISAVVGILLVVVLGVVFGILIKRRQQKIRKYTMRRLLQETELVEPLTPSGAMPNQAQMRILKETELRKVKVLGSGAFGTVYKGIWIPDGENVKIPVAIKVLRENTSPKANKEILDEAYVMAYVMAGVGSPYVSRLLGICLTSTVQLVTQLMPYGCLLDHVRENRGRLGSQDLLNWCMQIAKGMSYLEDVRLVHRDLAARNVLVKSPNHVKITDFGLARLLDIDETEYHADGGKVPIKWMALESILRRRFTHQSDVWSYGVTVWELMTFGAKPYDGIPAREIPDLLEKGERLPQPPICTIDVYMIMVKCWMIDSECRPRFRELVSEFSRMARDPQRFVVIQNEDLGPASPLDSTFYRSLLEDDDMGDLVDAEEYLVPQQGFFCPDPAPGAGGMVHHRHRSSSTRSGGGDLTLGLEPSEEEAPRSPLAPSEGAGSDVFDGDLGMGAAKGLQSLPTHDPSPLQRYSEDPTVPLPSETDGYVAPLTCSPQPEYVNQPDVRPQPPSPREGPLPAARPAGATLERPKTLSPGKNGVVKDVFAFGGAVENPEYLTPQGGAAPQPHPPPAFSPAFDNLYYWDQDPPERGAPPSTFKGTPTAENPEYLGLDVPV
T7 sequence (P04626 with tags, fused parts or gaps INS773WL/M774V): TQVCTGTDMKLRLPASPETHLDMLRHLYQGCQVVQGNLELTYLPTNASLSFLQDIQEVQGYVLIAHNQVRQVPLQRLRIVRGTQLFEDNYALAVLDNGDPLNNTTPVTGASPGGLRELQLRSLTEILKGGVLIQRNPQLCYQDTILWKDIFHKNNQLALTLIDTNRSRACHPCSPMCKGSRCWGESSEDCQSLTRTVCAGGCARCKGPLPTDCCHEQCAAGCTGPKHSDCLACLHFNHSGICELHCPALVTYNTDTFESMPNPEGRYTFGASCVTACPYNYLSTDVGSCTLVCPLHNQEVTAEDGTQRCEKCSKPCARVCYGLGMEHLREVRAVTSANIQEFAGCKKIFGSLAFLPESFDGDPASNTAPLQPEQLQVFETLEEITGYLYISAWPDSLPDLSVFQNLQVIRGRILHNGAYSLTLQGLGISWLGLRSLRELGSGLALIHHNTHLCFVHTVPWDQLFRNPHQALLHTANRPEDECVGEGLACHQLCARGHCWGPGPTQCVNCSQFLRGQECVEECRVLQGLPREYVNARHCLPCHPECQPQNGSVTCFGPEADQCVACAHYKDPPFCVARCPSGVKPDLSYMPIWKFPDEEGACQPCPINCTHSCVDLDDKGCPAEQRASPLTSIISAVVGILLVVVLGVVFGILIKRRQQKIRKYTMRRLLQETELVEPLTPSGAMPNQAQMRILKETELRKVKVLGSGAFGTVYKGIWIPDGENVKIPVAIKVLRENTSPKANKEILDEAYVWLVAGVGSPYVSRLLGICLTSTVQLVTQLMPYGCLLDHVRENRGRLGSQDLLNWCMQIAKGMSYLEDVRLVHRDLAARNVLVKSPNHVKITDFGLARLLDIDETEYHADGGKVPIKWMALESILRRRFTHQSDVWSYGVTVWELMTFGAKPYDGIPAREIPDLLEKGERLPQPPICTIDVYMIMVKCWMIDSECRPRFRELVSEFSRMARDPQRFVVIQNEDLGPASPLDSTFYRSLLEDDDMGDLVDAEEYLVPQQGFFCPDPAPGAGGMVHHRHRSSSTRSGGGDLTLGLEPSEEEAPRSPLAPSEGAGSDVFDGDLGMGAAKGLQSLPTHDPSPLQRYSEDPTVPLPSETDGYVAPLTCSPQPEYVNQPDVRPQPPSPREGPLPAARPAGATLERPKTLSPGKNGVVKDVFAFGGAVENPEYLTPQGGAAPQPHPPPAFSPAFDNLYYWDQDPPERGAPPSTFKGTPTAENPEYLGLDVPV
T2 sequence (P00533 with tags, fused parts or gaps INS769G/D770Y): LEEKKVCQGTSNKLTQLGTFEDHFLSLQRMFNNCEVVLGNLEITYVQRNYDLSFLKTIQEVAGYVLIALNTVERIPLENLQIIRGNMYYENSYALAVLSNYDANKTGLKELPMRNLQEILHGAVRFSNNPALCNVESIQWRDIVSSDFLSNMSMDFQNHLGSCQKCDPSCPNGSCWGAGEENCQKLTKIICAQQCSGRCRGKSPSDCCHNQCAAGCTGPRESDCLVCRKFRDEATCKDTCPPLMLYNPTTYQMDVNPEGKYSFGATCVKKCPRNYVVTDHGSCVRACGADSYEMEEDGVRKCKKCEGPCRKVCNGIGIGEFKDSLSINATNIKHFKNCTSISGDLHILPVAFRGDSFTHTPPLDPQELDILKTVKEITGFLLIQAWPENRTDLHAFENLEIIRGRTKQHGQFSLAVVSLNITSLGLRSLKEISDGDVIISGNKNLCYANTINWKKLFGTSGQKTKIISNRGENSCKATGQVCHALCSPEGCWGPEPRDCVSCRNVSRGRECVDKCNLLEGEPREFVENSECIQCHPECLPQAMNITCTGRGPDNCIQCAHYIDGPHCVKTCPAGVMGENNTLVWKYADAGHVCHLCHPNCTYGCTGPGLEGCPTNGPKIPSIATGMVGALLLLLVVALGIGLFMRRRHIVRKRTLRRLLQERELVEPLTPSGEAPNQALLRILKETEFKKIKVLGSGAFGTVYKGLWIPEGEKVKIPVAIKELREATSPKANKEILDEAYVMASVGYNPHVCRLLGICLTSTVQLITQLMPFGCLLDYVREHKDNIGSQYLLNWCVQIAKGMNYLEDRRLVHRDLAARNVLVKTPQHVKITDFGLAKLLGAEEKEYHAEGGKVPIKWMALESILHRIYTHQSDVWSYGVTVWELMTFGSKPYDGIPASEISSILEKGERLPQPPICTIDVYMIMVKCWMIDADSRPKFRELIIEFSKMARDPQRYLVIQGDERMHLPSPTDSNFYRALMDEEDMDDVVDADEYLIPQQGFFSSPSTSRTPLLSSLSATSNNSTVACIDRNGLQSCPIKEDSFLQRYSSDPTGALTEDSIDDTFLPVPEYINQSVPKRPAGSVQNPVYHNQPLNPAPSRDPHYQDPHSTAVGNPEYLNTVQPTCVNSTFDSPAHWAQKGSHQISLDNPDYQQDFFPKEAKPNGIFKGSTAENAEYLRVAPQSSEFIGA
T4 sequence (P00533 with tags, fused parts or gaps DUP773-773): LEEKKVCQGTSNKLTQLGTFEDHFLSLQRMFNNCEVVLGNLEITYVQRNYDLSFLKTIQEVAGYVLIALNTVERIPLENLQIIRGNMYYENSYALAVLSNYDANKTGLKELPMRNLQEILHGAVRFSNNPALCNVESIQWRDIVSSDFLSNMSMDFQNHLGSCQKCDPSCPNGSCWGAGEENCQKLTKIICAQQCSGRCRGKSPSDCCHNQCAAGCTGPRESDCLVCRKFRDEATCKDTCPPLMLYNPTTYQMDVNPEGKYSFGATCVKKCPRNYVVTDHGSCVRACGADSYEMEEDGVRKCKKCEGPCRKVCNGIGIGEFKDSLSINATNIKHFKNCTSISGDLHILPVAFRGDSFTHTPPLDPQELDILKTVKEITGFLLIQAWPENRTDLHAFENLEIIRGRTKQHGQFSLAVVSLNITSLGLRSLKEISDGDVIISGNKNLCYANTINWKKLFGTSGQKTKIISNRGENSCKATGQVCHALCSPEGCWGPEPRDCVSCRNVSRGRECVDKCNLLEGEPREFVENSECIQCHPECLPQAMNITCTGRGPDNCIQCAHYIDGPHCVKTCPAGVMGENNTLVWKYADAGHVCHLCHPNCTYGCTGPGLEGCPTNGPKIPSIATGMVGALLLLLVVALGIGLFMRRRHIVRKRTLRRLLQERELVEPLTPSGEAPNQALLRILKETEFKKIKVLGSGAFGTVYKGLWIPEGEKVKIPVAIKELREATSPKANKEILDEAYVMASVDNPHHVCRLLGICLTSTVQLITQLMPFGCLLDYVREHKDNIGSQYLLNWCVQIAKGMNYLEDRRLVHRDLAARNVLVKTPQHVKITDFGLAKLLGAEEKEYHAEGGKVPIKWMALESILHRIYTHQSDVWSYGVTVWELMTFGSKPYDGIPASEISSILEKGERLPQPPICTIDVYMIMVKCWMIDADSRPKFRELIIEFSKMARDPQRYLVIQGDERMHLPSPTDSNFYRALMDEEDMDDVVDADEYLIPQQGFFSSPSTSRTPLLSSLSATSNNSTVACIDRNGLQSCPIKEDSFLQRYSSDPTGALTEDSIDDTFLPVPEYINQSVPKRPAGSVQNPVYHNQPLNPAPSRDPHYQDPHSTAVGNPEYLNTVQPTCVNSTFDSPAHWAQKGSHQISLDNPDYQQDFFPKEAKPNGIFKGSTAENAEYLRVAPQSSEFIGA

With `C=CC(=O)Nc1cc(Nc2ncc3cc(Oc4ccc(F)cc4F)c(=O)[nH]c3n2)c(OC)cc1N(C)CCN(C)C` [Compound 99], the EC50 in assay [1] is < 200 nM; in assay [2] it was < 200 nM; in assay [3], < 200 nM; in assay [4], 200 to 600 nM; in assay [5] (Table 10 key) it was < 200 nM; in assay [6] (Table 10 key) it was < 200 nM. In addition, the EC50 in assay [7] (Table 10 key) is < 200 nM.

Consider `C=CC(=O)Nc1cc(Nc2ncc3cc(Oc4ccc(F)cc4F)c(=O)n(C)c3n2)ccc1N(C)CCN(C)C` [Compound 116], for which the EC50 in assay [1], in assay [3], in assay [4], in assay [5] (Table 10 key), in assay [6] (Table 10 key) and in assay [7] (Table 10 key) was < 200 nM in each case.

For the molecule `C=CC(=O)Nc1cc(Nc2ncc3cc(Oc4ccc(C)cc4)c(=O)n(C)c3n2)c(OC)cc1N(C)CCN(C)C` [Compound 131], the EC50 in assay [1] is < 200 nM; in assay [3], < 200 nM; in assay [4], 200 to 600 nM; in assay [5] (Table 10 key), < 200 nM; in assay [6] (Table 10 key), < 200 nM; in assay [7] (Table 10 key), < 200 nM.

`C=CC(=O)Nc1cc(Nc2ncc3cc(Oc4c(F)cc(F)cc4F)c(=O)n(C)c3n2)c(OC)cc1N(C)CCN(C)C` [Compound 136]: the EC50 in assay [1] is < 200 nM; in assay [2] it was < 200 nM; in assay [3], < 200 nM; in assay [4], 200 to 600 nM; in assay [5] (Table 10 key), < 200 nM; in assay [6] (Table 10 key), < 200 nM. Moreover, the EC50 in assay [7] (Table 10 key) was < 200 nM.

As to `C=CC(=O)Nc1cccc(-n2c(=O)c(Oc3ccc(F)cc3F)cc3cnc(N)nc32)c1` [Compound 106], the EC50 is < 200 nM in assay [1]; < 200 nM in assay [2]; < 200 nM in assay [3]; 200 to 600 nM in assay [4]; < 200 nM in assay [5] (Table 10 key); < 200 nM in assay [6] (Table 10 key). Also, the EC50 in assay [7] (Table 10 key) is < 200 nM.

In the case of `C=CC(=O)Nc1cc(Nc2ncc3cc(Oc4ccc(F)cc4F)c(=O)n(C)c3n2)cnc1N(C)CCN(C)C` [Compound 113], the EC50 is < 200 nM in assay [1]; < 200 nM in assay [2]; < 200 nM in assay [3]; 600 to 1000 nM in assay [4]; < 200 nM in assay [5] (Table 10 key); < 200 nM in assay [6] (Table 10 key). The EC50 in assay [7] (Table 10 key) was < 200 nM.

Take `C=CC(=O)Nc1cc(Nc2ncc3cc(Oc4ccccc4)c(=O)n(C)c3n2)c(OC)cc1N(C)CCN(C)C` [Compound 132]: the EC50 in assay [1], in assay [3], in assay [4], in assay [5] (Table 10 key), in assay [6] (Table 10 key) and in assay [7] (Table 10 key) was < 200 nM each time.

As to `C=CC(=O)Nc1cc(Nc2ncc3cc(Oc4ccc(F)cc4F)c(=O)n(CC(F)(F)F)c3n2)c(OC)cc1N(C)CCN(C)C` [Compound 85], the EC50 in assay [1], in assay [2], in assay [3], in assay [4], in assay [5] (Table 10 key) and in assay [6] (Table 10 key) was < 200 nM throughout. In assay [7] (Table 10 key), the EC50 is < 200 nM.

In the case of `C=CC(=O)Nc1cccc(-n2c(=O)c(Oc3ccc(F)c(Cl)c3)cc3cnc(Nc4cnn(C)c4)nc32)c1` [Compound 88], the EC50 in assay [1] is < 200 nM; in assay [3], < 200 nM; in assay [4], 200 to 600 nM; in assay [5] (Table 10 key) it was < 200 nM; in assay [6] (Table 10 key) it was < 200 nM; in assay [7] (Table 10 key) it was 200 to 600 nM.

Turning to `C=CC(=O)Nc1cc(Nc2ncc3cc(Nc4ccc(F)cc4F)c(=O)n(C)c3n2)c(OC)cc1N(C)CCN(C)C` [Compound 141], the EC50 in assay [1] was < 200 nM; in assay [2], < 200 nM; in assay [3], < 200 nM; in assay [4], 200 to 600 nM; in assay [5] (Table 9 key) it was < 100 nM; in assay [6] (Table 9 key) it was < 100 nM. The EC50 in assay [7] (Table 9 key) was < 100 nM.

On to `C=CC(=O)Nc1cc(Nc2ncc3cc(Oc4ccc(F)cc4F)c(=O)n(C)c3n2)c(OC)cc1C1CCN(C)CC1` [Compound 128], for which the EC50 was 200 to 600 nM in assay [1], 600 to 1000 nM in assay [3], 200 to 600 nM in assay [5] (Table 10 key) and < 200 nM in assay [6] (Table 10 key).

For `C=CC(=O)Nc1ccc(OC)c(Nc2ncc3cc(Oc4ccc(F)cc4F)c(=O)n(CCN(C)C)c3n2)c1` [Compound 94], the EC50 in assay [1] is < 200 nM; in assay [2], < 200 nM; in assay [3], 200 to 600 nM; in assay [4] it was > 1000 nM; in assay [5] (Table 10 key) it was < 200 nM; in assay [6] (Table 10 key) it was < 200 nM. The EC50 in assay [7] (Table 10 key) was 200 to 600 nM.

As to `C=CC(=O)Nc1cccc(-n2c(=O)c(Oc3cc(F)c(F)cc3F)cc3cnc(Nc4cnn(C)c4)nc32)c1` [Compound 87], the EC50 in assay [1] was < 200 nM; in assay [3], < 200 nM; in assay [4] it was 600 to 1000 nM; in assay [5] (Table 10 key), < 200 nM; in assay [6] (Table 10 key), < 200 nM; in assay [7] (Table 10 key) it was < 200 nM.

Consider `C=CC(=O)Nc1cc(Nc2ncc3cc(Oc4ccc(F)cc4F)c(=O)n(C)c3n2)c(OC)cc1C1CCNCC1` [Compound 127], for which the EC50 in assay [1], in assay [3], in assay [5] (Table 10 key) and in assay [6] (Table 10 key) was > 1000 nM in each case.

`C=CC(=O)Nc1cc(Nc2ncc3cc(Oc4ccc(F)c(Cl)c4)c(=O)n(C)c3n2)c(OC)cc1N(C)CCN(C)C` [Compound 137]: the EC50 in assay [5] (Table 10 key), in assay [6] (Table 10 key) and in assay [7] (Table 10 key) was < 200 nM in each case.

With `C=CC(=O)Nc1cccc(-n2c(=O)c(Oc3ccc(Cl)cc3F)cc3cnc(Nc4cnn(C)c4)nc32)c1` [Compound 89], the EC50 is < 200 nM in assay [1]; < 200 nM in assay [3]; 200 to 600 nM in assay [4]; < 200 nM in assay [5] (Table 10 key); < 200 nM in assay [6] (Table 10 key); < 200 nM in assay [7] (Table 10 key).

On to `C=CC(=O)Nc1cc(Nc2ncc3cc(Oc4ccc(F)cc4)c(=O)n(C)c3n2)c(OC)cc1N(C)CCN(C)C` [Compound 130], for which the EC50 in assay [1], in assay [3], in assay [4], in assay [5] (Table 10 key), in assay [6] (Table 10 key) and in assay [7] (Table 10 key) was < 200 nM in each case.

Regarding `C=CC(=O)N1C[C@H](Cn2c(=O)c(Oc3ccc(F)cc3F)cc3cnc(N)nc32)[C@@H](OC)C1` [Compound 110], the EC50 in assay [1] is 200 to 600 nM; in assay [3], < 200 nM; in assay [5] (Table 10 key), < 200 nM; in assay [6] (Table 10 key) it was < 200 nM.

Regarding `C=CC(=O)Nc1cc(Nc2ncc3cc(Oc4ccc(F)cc4F)c(=O)n(C)c3n2)ccc1CCCN(C)C` [Compound 117], the EC50 in assay [1] was < 200 nM; in assay [3] it was 200 to 600 nM; in assay [4], > 1000 nM; in assay [5] (Table 10 key), < 200 nM; in assay [6] (Table 10 key), < 200 nM; in assay [7] (Table 10 key), 200 to 600 nM.

Consider `C=CC(=O)Nc1cc(Nc2ncc3cc(Oc4ccc(F)cc4)c(=O)n(C)c3n2)ccc1N(C)CCN(C)C` [Compound 129], for which the EC50 in assay [1] is < 200 nM; in assay [3] it was 200 to 600 nM; in assay [4] it was > 1000 nM; in assay [5] (Table 10 key), < 200 nM; in assay [6] (Table 10 key), < 200 nM; in assay [7] (Table 10 key), 600 to 1000 nM.

With `C=CC(=O)N1C[C@H](Cn2c(=O)c(Oc3ccc(F)cc3F)cc3cnc(NC(C)=O)nc32)[C@@H](OC)C1` [Compound 112], the EC50 in assay [1] is < 200 nM; in assay [3] it was < 200 nM; in assay [5] (Table 10 key), 200 to 600 nM; in assay [6] (Table 10 key) it was 200 to 600 nM.
